Columns and labels:
[1] = target: T1, Delta-type opioid receptor (Rattus norvegicus, UniProt P33533); assay: In vito concentration required to displace [3H]DADLE (Kd = 12.2 nM and concentration is 2.1 nM) from low affinity delta-site in rat brain membranes.; type: cell membranes
[2] = target: T2, Kappa-type opioid receptor (Cavia porcellus, UniProt P41144); assay: In vito concentration required to displace [3H]BRM (Kd = 1.0 nM and concentration is 1.8 nM) from opioid receptor kappa 2 in guinea brain membranes.; type: cell membranes
T2 sequence (P41144 whole entry): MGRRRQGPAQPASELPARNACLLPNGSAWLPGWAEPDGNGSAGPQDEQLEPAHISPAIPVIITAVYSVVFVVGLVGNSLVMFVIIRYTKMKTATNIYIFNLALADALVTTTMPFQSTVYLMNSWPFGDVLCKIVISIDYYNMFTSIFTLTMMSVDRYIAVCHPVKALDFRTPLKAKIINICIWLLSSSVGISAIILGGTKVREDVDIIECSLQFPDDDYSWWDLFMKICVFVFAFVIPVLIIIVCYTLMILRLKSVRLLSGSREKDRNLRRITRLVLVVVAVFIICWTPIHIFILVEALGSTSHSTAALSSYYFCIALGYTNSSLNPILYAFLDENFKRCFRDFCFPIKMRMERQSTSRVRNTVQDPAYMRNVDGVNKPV

[3] = target: T1, Delta-type opioid receptor; assay: In vito concentration required to displace [3H]DADLE (Kd = […] and concentration is […]) from high affinity delta-site in rat brain membranes.; type: cell membranes
[4] = target: T1, Delta-type opioid receptor; assay: In vito concentration required to displace [3H]-DADLE (Kd = 12.2 nM and concentration is 2.1 nM) from low affinity delta-site in rat brain membranes.; type: cell membranes
Mu-type opioid receptor [5] = target: T3, Mu-type opioid receptor (Rattus norvegicus, UniProt P33535); type: cell membranes, Brain, Brain membranes
T3 sequence (P33535 whole entry): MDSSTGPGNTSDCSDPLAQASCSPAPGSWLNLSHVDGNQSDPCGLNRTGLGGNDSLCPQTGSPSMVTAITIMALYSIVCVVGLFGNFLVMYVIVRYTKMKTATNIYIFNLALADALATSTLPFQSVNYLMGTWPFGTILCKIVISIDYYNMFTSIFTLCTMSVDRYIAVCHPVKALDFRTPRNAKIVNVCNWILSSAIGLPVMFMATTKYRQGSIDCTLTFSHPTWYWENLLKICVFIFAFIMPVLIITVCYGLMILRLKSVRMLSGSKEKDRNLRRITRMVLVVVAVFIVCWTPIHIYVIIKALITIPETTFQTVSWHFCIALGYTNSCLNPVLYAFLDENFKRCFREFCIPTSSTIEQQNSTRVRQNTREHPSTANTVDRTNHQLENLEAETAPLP

Mu-type opioid receptor [6] = target: T3, Mu-type opioid receptor; type: cell membranes, Brain, Brain membranes; remark: listed apart in the source
[7] = target: T2, Kappa-type opioid receptor; assay: In vito concentration required to displace 9 (Kd = […] and concentration is 1.8 nM) from opioid receptor kappa 2 in guinea brain membranes.; type: cell membranes
[8] = target: T2, Kappa-type opioid receptor; assay: In vito concentration required to displace [3H]-BRM (Kd = 1.0 nM and concentration is 1.8 nM) from opioid receptor kappa 2 in guinea brain membranes.; type: cell membranes
Mu-type opioid receptor [9] = target: T3, Mu-type opioid receptor; assay: In vito concentration required to displace [3H]DAGO (Kd = 0.7 nM and concentration is […]) from opioid receptor mu in rat brain membranes.; type: cell membranes
[10] = target: T2, Kappa-type opioid receptor; assay: In vito concentration required to displace 9 (Kd = […] and concentration is 1.8 nM) from opioid receptor kappa 1 in guinea brain membranes.; type: cell membranes

T1 sequence (P33533 whole entry): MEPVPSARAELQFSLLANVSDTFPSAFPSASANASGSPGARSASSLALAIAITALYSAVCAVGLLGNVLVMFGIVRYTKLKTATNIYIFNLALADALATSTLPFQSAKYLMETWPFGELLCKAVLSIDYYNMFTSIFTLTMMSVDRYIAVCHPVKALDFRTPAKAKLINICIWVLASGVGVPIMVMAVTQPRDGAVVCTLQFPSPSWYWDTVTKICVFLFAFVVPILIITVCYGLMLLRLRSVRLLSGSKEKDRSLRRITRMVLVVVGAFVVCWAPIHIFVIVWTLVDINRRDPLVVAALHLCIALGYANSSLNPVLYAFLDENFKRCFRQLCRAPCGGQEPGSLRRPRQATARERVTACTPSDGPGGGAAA

Row | SMILES | Ki [1] | IC50 [2] | IC50 [3] | IC50 [4] | IC50 (Mu-type opioid receptor [5]) | Ki (Mu-type opioid receptor [6]) | Ki [7] | Ki [8] | Ki [3] | IC50 (Mu-type opioid receptor [9]) | Ki (Mu-type opioid receptor [9]) | Ki [10] | IC50 [10]
1 | Oc1ccc2c3c1O[C@H]1[C@H](I)CC[C@@]4(O)[C@@H](C2)N(CC2CC2)CC[C@]314 | 2.25 nM | 7.65 nM | 25.6 nM | 2.64 nM | 0.77 nM | 0.29 nM | 2.73 nM | – | – | – | – | – | –
2 | Oc1ccc2c3c1O[C@H]1[C@@H](I)CC[C@@]4(O)[C@@H](C2)N(CC2CC2)CC[C@]314 | 6.88 nM | 23.7 nM | – | 8.06 nM | 4.34 nM | 1.65 nM | – | 8.46 nM | – | – | – | – | –
3 | Oc1ccc2c3c1O[C@H]1[C@H](F)CC[C@@]4(O)[C@@H](C2)N(CC2CC2)CC[C@]314 | 13.8 nM | 66 nM | 268 nM | 16.2 nM | 8.98 nM | 3.42 nM | – | – | 122 nM | 11.4 nM | 3.32 nM | 3.71 nM | –
4 | Oc1ccc2c3c1O[C@H]1[C@@H](Br)CC[C@@]4(O)[C@@H](C2)N(CC2CC2)CC[C@]314 | 4.92 nM | 20.2 nM | 4.3 nM | 5.77 nM | 3.14 nM | 1.19 nM | – | 7.21 nM | 1.96 nM | 4.21 nM | 1.23 nM | 0.32 nM | 0.7 nM

Reference: ChEMBL document CHEMBL1125501, “Probes for narcotic receptor mediated phenomena. 18. Epimeric 6 alpha- and 6 beta-iodo-3,14-dihydroxy-17-(cyclopropylmethyl)-4,5 alpha-epoxymorphinans as potential ligands for opioid receptor single photon emission computed tomography: synthesis, evaluation, and radiochemistry of [125I]-6 …” (J Med Chem, 1992)
